Assay results as given in patent US5112845A, “Alpha-heterocycle substituted tolunitriles” (Ciba-Geigy Corporation, priority 1990, dated 1992).
pIC50: −log10 of the molar value. Where a name gives a salt, the structure may show the parent alone. Read-outs that look alike come from different tables or passages of the source. Blank lines part the entries; values can stand above or below the molecule they belong to.

Assays:
[1] = test system: dimethylbenzanthracene (DMBA)-induced mammary tumors; assay: antitumor activity in DMBA-induced mammary tumors in rats; type: in vivo, female Sprague-Dawley rats; settings: Rattus norvegicus, po, read-out: effective daily dose (antitumor)
Source text: Exp. Biol. Med. 160, 296-301 (1979)].

female rats = assay: in vivo antifertility property (implantation and/or fetal resorption) in rats; design: species or system rat (Sprague Dawley); settings: Rattus norvegicus, po, administered as the fumarate or hemisuccinate salt, read-out: dose at which fertility is inhibited
Description: Mated female rats (Sprague Dawley) weighing approximately 180-200 g were obtained on the day of coitus. The presence of sperm in the vagina was used as a verification that mating had occurred. On the day of receipt, day of coitus or day 0 of `pregnancy`, the rats are divided into two groups of six to eight rats per group. One group is given various doses of the test compound p.o., suspended in 0.2 ml of carboxymethylcellulose (CMC) beginning on day 1 of `pregnancy` and continuing through day 9 of `pregnancy`. These same rats receive a daily injection of 0.1 ml of sesame oil s.c. over this same time frame. The second group of rats receive the vehicles, CMC p.o. and oil s.c., on days 1-9 of `pregnancy`. All of the rats are sacrificed on day 12 or 13 of `pregnancy`, and their uteri are exposed and examined for fetuses and/or resorption sites.

female dogs [2] = assay: prevention of proestrus and estrus in female dogs treated during anestrus; type: in vivo, dog; settings: 10.0 mg/kg p.o. daily for 224 days, ten mature beagles during anestrus; controls exhibited proestrus and estrus at least once
Source text: (§1) Proestrus, for example in the bitch, commences with a vaginal discharge, followed by attraction of the male resulting from estrogen secretion and lasts on an average of 9 days. The females only permit mating during estrus. The compounds of the present invention, when administered to female dogs e.g. on the second day of proestrus, terminate all physical signs of proestrus andestrus and mating will be prevented.
(§2) For example, ten mature beagles during anestrus with known breeding histories were administered e.g. 10.0 mg/kg p.o. daily of the compound of example 46 for 224 days. […] Ten female beagles with known breeding histories were administered 10.0 mg/kg p.o. daily of the compound of example 46 for 91 days beginning on the first day proestrus was noted.

female dogs [3] = assay: cessation of proestrus and estrus in female dogs treated from proestrus; type: in vivo, dog
Source text: as §1, §2

aromatase = target: T1, aromatase (Homo sapiens, UniProt P11511); assay: in vitro inhibition of aromatase activity (human placental microsomes, aromatization of [1,2-^3 H]-androstenedione); type: biochemical; settings: 20 minutes at 37° C
T1 construct: A microsomal fraction is prepared from human placenta by the method essentially as described by Thompson and Siiteri; from tissue; host or cells: human placenta, microsomal fraction (lyophilized)
T1 sequence (P11511 1-503): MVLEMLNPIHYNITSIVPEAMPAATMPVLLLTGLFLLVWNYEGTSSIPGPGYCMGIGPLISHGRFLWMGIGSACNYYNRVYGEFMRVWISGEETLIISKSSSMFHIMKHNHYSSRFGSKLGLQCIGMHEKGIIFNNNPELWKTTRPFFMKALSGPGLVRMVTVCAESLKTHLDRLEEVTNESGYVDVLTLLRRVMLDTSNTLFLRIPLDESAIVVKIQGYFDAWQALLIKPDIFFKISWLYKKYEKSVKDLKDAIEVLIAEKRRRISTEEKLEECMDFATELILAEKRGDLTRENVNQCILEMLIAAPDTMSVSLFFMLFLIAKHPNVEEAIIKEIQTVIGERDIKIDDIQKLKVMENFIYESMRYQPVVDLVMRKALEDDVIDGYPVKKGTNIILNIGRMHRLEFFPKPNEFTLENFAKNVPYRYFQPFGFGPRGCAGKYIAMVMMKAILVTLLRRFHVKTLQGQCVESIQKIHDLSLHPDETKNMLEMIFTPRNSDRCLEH
Description: The microsomal preparation so obtained is lyophilized and stored at -40° C.
The assay is conducted substantially as described by Thompson and Siiteri. The human placental microsomes are added to [1,2-^3 H]-androstenedioneand incubated for 20 minutes at 37° C. The amount of aromatization of the labelled substrate is detected by the […] of ^3 H2 O into the incubation medium. The substrate is removed by chloroform extraction, followed by adsorption to charcoal in suspension. The charcoal is removed by centrifugation and the steroid-free medium is counted in a liquid scintillation counter. Compounds are tested for aromatase inhibitory activity by adding them to the incubation medium prior to the addition of the microsomes. The relative cpm obtained with and without the inhibitor is used to calculate the percent inhibition of the aromatization of androstenedione to estrone.

estrogen synthesis = assay: in vivo inhibition of aromatase activity: inhibition of estrogen synthesis in rats (ovarian estrogen content); settings: po, female rat, PMS/hCG and androstenedione treated; read-out: dose at which estrogen synthesis is inhibited
Description: Twenty-one-day-old female rats are injected subcutaneously with 10 IU pregnant mare serum gonadotropin (PMS). Two days later the same rats are injected subcutaneously with 30 IU human chorionic gonadrotropin (hCG). On the day following the hCG treatment the rats are injected subcutaneously with either propylene glycol (0.2 ml; […].) or with various doses of the test compound. […] Four hours after the injection of androstenedione the rats are sacrificed and their ovaries removed and trimmed free of adhering tissue and stored in pairs at -40° C. To determine the total estrogen content of the ovaries, 1.5 ml of 0.05M aqueous potassium phosphate buffer, pH 7.4, and 0.2 ml of 0.1N aqueous sodium hydroxide are added to the tissues which are then homogenized. The homogenate is extracted with 15 ml of diethyl ether, 5 ml aliquots are radioimmunoassayed with antiserum having 100% cross reactivity with estrone, estradiol and estriol. The ovarian estrogen content is expressed as ng estrogen/pair of ovaries. The inhibition of estrogen synthesis, indicative of aromatase inhibition, is calculated from the ovarian estrogen content in treated as compared to control animals.

SMILES: N#Cc1ccc(C(c2ccc(C#N)cc2)n2cncn2)cc1 [Example 20a, 4-[alpha-(4-cyanophenyl)-1-(1,2,4-triazolyl)-methyl]benzonitrile]
minimal effective dose ([1]; daily, p.o., rats, DMBA-induced mammary tumors): ~0.03 mg/kg/day

SMILES: N#Cc1ccc(C(c2ccc(C#N)cc2)n2ccnc2)cc1 [Example 2a, 4-[alpha-(4-cyanophenyl)-1-imidazolylmethyl]-benzonitrile]
minimal effective dose (female rats): ~4000 µg/kg
minimal effective dose [1]: ~0.1 mg/kg/day

SMILES: N#Cc1ccc(C(c2cccnc2)n2ccnc2)cc1 (stereo not drawn) [Example 46, sulfate salt of 4-[alpha-(3-pyridyl)-1-imidazolylmethyl]benzonitrile]
signs of proestrus (female dogs [2]): No signs of proestrus were observed
signs of proestrus (female dogs [3]; 10.0 mg/kg p.o. daily for 91 days beginning on first day of proestrus, ten female beagles): All signs of proestrus disappeared
acceptance of a male (female dogs [3]; 10.0 mg/kg p.o. daily for 91 days, ten female beagles, male presented 9 and 11 days later): no dogs accepted a male
proestrus during remainder of treatment (female dogs [3]; 10.0 mg/kg p.o. daily, remainder of the 91 days, ten female beagles): Proestrus was not observed
acceptance of a male dog (female dogs [3]; 10.0 mg/kg p.o. daily, 9 and 11 days following the initial sign of proestrus): refused to accept a male dog
dogs exhibiting estrus during recovery (female dogs [3]; 190 days recovery period after 91 days at 10.0 mg/kg p.o. daily): eight of ten dogs exhibited estrus

pIC50 (aromatase): ~7.80
SMILES: N#Cc1ccc(C(c2cccnc2)n2ccnc2)cc1 (stereo not drawn) [Example 5e, 4-[alpha-(3-pyridyl)-1-imidazolylmethyl]-benzonitrile]
minimal effective dose (estrogen synthesis): ~3 µg/kg

pIC50 (aromatase): ~8.52
SMILES: N#Cc1ccc(CC(c2ccc(C#N)cc2)n2ccnc2)cc1 (stereo not drawn) [Example 11f, 4-[alpha-(4-cyanobenzyl)-1-imidazolylmethyl]benzonitrile]
minimal effective dose (estrogen synthesis): ~3 µg/kg
